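Grown in 96-well plates, cells were treated for 48 hours with each compound at five concentrations. Insufficient inhibition: endpoint recorded as highest concentration tested. GI50 = concentration required for 50% inhibition of growth. TGI: total growth inhibition.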
Tests used:
Test in all cases: NCI tumour cell line growth inhibition, 48 h
K-562 leukemia = system: K-562 leukemia
KM12 colon = system: KM12 colon
LOX IMVI melanoma = system: LOX IMVI melanoma
NCI-H460 lung = system: NCI-H460 lung
PC-3 prostate = system: PC-3 prostate
SK-MEL-5 melanoma = system: SK-MEL-5 melanoma
SW-620 colon = system: SW-620 colon
T-47D breast = system: T-47D breast
U251 CNS = system: U251 CNS
UO-31 renal = system: UO-31 renal

| Compound | GI50 (K-562 leukemia) [µM] | TGI (K-562 leukemia) [µM] | GI50 (KM12 colon) [µM] | TGI (KM12 colon) [µM] | GI50 (LOX IMVI melanoma) [µM] | TGI (LOX IMVI melanoma) [µM] | GI50 (NCI-H460 lung) [µM] | TGI (NCI-H460 lung) [µM] | GI50 (PC-3 prostate) [µM] | TGI (PC-3 prostate) [µM] | GI50 (SK-MEL-5 melanoma) [µM] | TGI (SK-MEL-5 melanoma) [µM] | GI50 (SW-620 colon) [µM] | TGI (SW-620 colon) [µM] | GI50 (T-47D breast) [µM] | TGI (T-47D breast) [µM] | GI50 (U251 CNS) [µM] | TGI (U251 CNS) [µM] | GI50 (UO-31 renal) [µM] | TGI (UO-31 renal) [µM] |
| --- | --- | --- | --- | --- | --- | --- | --- | --- | --- | --- | --- | --- | --- | --- | --- | --- | --- | --- | --- | --- |
| O=C(Nc1cccc(Cl)c1)Nc1cc(C(F)(F)F)ccc1Cl | 3.36 | 18.2 | 2.65 | 6.98 | 2.75 | 6.96 | 2.54 | 6.84 | 3.86 | 32.8 | 1.92 | 3.51 | 3.28 | 10.6 | 3.53 | 31.3 | 3.32 | 8.56 |  |  |
| CCCCCCCN(CCCCCCC)C(=N)c1ccc(OC)c2ccccc12 |  |  |  |  |  |  |  |  | 1.35 | 2.78 | 1.58 | 3.01 | 0.825 | 2.24 | 1.56 | 3.33 | 1.39 | 2.81 | 0.971 | 2.36 |
| CN1c2cccc[c]2[Sn]([CH3])([CH3])[c]2ccccc21 | < 0.01 | 2.13 | < 0.01 | < 0.0169 | 0.0107 | 0.0304 | < 0.01 | 0.0126 | 0.0191 | 0.154 | < 0.01 | 0.023 | 0.019 | 0.0675 |  |  | < 0.016 | 0.134 | 0.0374 | 0.182 |
| Cc1ccccc1C1SCc2nc3ccccc3n21 (stereo not given) |  | > 100 |  | > 100 |  |  |  |  |  |  |  | > 100 |  |  |  |  |  | > 100 |  | > 100 |
| Clc1cc2ns[s+]c2cc1Cl |  | > 100 |  | > 100 |  | > 100 |  | > 100 |  |  |  | > 52 |  | > 100 |  |  |  | > 100 |  | > 91.7 |
| NC1=NN(c2ccccc2)C(=O)C1/C(=N\NC(=O)c1cc2ccccc2cc1O)C(=O)Nc1ccc(Cl)c(Cl)c1 (stereo not given) |  | > 100 |  | > 100 |  | > 100 |  | 85.5 |  |  |  | 79.4 |  | > 100 |  |  |  | > 100 |  | > 100 |
| COc1ccc(NC(=O)CC2SC(=Nc3ccc(Cl)cc3C)NC2=O)c([N+](=O)[O-])c1 (stereo not given) |  | > 100 |  |  |  | > 100 |  | > 100 |  |  |  | > 100 |  | > 100 |  |  |  | > 100 |  | > 100 |
| CC(C)(C)c1cc([Si](C)(C)C)c(C#N)c([Si](C)(C)C)c1 |  | > 100 |  | > 100 |  | > 100 |  | > 100 |  |  |  |  |  | > 100 |  |  |  | > 100 |  | > 100 |
| Cn1cc(-c2nc(-c3c[nH]c4ccccc34)cs2)c2cccnc21 | 0.106 | > 100 | 0.314 | 22.8 | 0.628 | > 100 | 0.339 | > 100 | 0.41 | > 100 | 0.255 | 16.1 | 0.221 | > 100 |  |  | 0.432 | > 53.9 | 0.649 | > 100 |
| COc1cc(OC)c(OC)cc1/C=C/c1ccc2ccccc2n1 |  | > 10 |  | > 10 |  | > 10 |  |  |  | > 10 |  | > 10 |  | > 10 |  | > 10 |  | > 10 |  |  |
| COc1ccc(C2[C@@H](Cl)C(=O)N2c2ccc(OC)cc2)cc1 (stereo not given in full) |  | > 100 |  | > 100 |  |  |  | > 100 |  |  |  | > 100 |  | > 100 |  |  |  | > 100 |  | > 100 |
| CC1O[C@@H]2CCCCC(=O)[C@]2(C)[C@H]1C (stereo not given in full) |  | > 100 |  | > 100 |  | > 100 |  | > 100 |  |  |  | > 100 |  | > 100 |  |  |  | > 100 |  | > 100 |
| COc1ccc(-c2oc(C=Nc3ccccc3)c([N+](=O)[O-])c2-c2ccc(OC)c(OC)c2)cc1OC |  | > 100 |  | > 100 |  | > 100 |  | > 100 |  |  |  | > 100 |  | > 100 |  |  |  | > 100 |  | > 100 |
| O=c1[nH]c(C2CCCCC2)nc2ccc(Cl)cc12 |  | > 100 |  | > 100 |  |  |  |  |  |  |  | > 100 |  | > 100 |  |  |  | > 100 |  | > 100 |
| O=C1/C(=C/c2ccc(C(=O)O)cc2)CNC/C1=C\c1ccc(C(=O)O)cc1 |  | > 100 |  | > 100 |  |  |  | > 100 |  |  |  | > 100 |  |  |  |  |  | > 100 |  | > 100 |
| COC1C[C@H](O[C@@H]2C[C@H](O[C@@H]3C[C@H](O[C@@H]4C(=O)c5c(cc6cc(O[C@H]7C[C@@H](O[C@H]8C[C@@H](O)[C@H](O)C(C)O8)[C@H](O)C(C)O7)c(C)c(O)c6c5O)C[C@H]4C(OC)C(=O)[C@@H](O)[C@@H](C)O)OC(C)[C@H]3O)OC(C)[C@@H]2O)OC(C)[C@@H]1O (stereo not given in full) | 0.119 | > 32.5 |  |  | 0.0545 | 0.168 | 0.0802 | > 32.5 | 0.123 | > 32.5 | 0.0641 | 0.175 | 0.127 | > 32.5 | 0.0701 | 7 | 0.0631 | 29.6 | 0.294 | 4.76 |
| c1ccc2cc(Cn3c(-c4cccc5ccccc45)[n+](Cc4ccc5ccccc5c4)c4c5ccccc5c5ccccc5c43)ccc2c1 | 0.224 | > 100 | 0.285 | 1.2 |  |  | 0.254 | 1.41 | 0.158 | 1.53 | 0.179 | 0.338 |  |  | 0.269 | 1.7 | 0.165 | 1.42 |  |  |

| Compound | GI50 (K-562 leukemia) [µM] | TGI (K-562 leukemia) [µM] | GI50 (KM12 colon) [µM] | TGI (KM12 colon) [µM] | GI50 (LOX IMVI melanoma) [µM] | TGI (LOX IMVI melanoma) [µM] | GI50 (NCI-H460 lung) [µM] | TGI (NCI-H460 lung) [µM] | GI50 (PC-3 prostate) [µM] | TGI (PC-3 prostate) [µM] | GI50 (SK-MEL-5 melanoma) [µM] | TGI (SK-MEL-5 melanoma) [µM] | GI50 (SW-620 colon) [µM] | TGI (SW-620 colon) [µM] | GI50 (T-47D breast) [µM] | TGI (T-47D breast) [µM] | GI50 (U251 CNS) [µM] | TGI (U251 CNS) [µM] | GI50 (UO-31 renal) [µM] | TGI (UO-31 renal) [µM] |
| --- | --- | --- | --- | --- | --- | --- | --- | --- | --- | --- | --- | --- | --- | --- | --- | --- | --- | --- | --- | --- |
| CN1C(=O)CC(CC(=O)C2CCCCC2=O)CC1=O (stereo not given) |  | > 100 |  | > 100 |  | > 100 |  | > 100 |  |  |  |  |  | > 100 |  |  |  | > 100 |  | > 100 |
| O=Cc1cc2sc(C=O)cc2s1 |  | > 100 |  | > 100 |  | > 100 |  | > 100 |  |  |  | > 100 |  | > 100 |  |  |  | > 100 |  | > 100 |
| O=C1C2=C(c3ccccc31)C(c1ccc([N+](=O)[O-])cc1)NC(=S)N2 (stereo not given) |  | > 100 |  | > 100 |  |  |  | > 100 |  |  |  | > 100 |  | > 100 |  |  |  | > 100 |  | > 100 |
| CCCCCCCC(=O)[O-].N.N.N.N.N.[Co+3].[O-][Cl+3]([O-])([O-])[O-] | > 100 | > 100 | > 100 | > 100 | > 100 | > 100 | > 100 | > 100 |  |  | > 100 | > 100 | > 100 | > 100 |  |  | > 100 | > 100 | 90.6 | > 100 |
| Oc1ccc(Cl)cc1N=Nc1c(O)ccc2ccccc12 |  | > 100 |  | > 100 |  | > 100 |  |  |  | > 100 |  | > 100 |  | > 100 |  |  |  | > 100 |  | > 100 |
| CC1=NN(c2ccccc2)C(=O)C1N=Nc1ccc(Br)cc1C (stereo not given) |  | > 100 |  | > 100 |  |  |  | > 100 |  |  |  | > 100 |  | > 100 |  |  |  | > 100 |  |  |
| OCC1OC(NO)C(O)C(O)C1O (stereo not given) |  | > 100 |  | > 100 |  | > 100 |  | > 100 |  |  |  | > 100 |  | > 100 |  |  |  | > 100 |  |  |
| C/C(COc1ccccc1)=N\NC(N)=S |  | > 100 |  | > 100 |  | > 100 |  |  |  |  |  | > 100 |  | > 100 |  |  |  | > 100 |  | > 100 |
| O=S1c2ccccc2N=C(c2cccs2)CC1c1ccccc1O (stereo not given) |  | > 100 |  | > 100 |  | > 100 |  | > 100 |  |  |  | > 100 |  | > 100 |  |  |  |  |  | > 100 |
| O=S(=O)(O)c1ccc([Se][Se]c2ccc(S(=O)(=O)O)cc2)cc1 |  | > 100 |  | > 100 |  | > 100 |  | > 100 |  |  |  | > 100 |  | > 100 |  |  |  | > 100 |  | > 100 |
| O=C(C#Cc1ccccc1)N1CCCCC1 |  | > 100 |  | > 100 |  | > 100 |  | > 100 |  | > 100 |  | > 100 |  | > 100 |  | > 100 |  | > 100 |  |  |
| Oc1ccccc1-c1cnnc(-c2ccccc2O)c1 |  | > 100 |  |  |  | 41 |  |  |  |  |  |  |  | > 100 |  |  |  |  |  | 44.3 |
| CCCCCCCCCCCCCC(=O)OCC1OC(=O)C(O)C1O (stereo not given) |  | > 100 |  | > 100 |  | > 100 |  |  |  |  |  | > 100 |  | > 100 |  |  |  | > 100 |  | > 100 |
| CCC(/C(=N/NC(=O)C[N+](C)(C)C)c1ccccc1)C1OC(=O)c2ccccc21 (stereo not given) |  | > 100 |  | > 100 |  | > 100 |  | > 100 |  |  |  | > 100 |  | > 100 |  |  |  | > 100 |  | > 100 |
| COc1ccc(/C=C2\CCC(C)(CN(C)C)C2=O)cc1Br (stereo not given) |  | 64.9 |  | 28.3 |  | 35.3 |  | > 57.2 |  | 39.7 |  | 28.3 |  | 38.4 |  |  |  | 45.1 |  | 33.3 |
| O=S1(=O)CC#CC[C@@H](CO)[C@@H](CO)CC#CC1 |  | > 100 |  | > 100 |  | > 100 |  | > 100 |  |  |  | > 100 |  | > 100 |  |  |  | > 100 |  | > 100 |
| O=C(NNC(=O)/C(=C/c1cccc([N+](=O)[O-])c1)NC(=O)c1ccccc1)Nc1ccc(Cl)cc1 |  | 36.1 |  | 24.7 |  | 30.2 |  | 29.9 |  |  |  | 25.7 |  | 28.5 |  |  |  | 28.4 |  | 27.3 |
